Experimental data taken from PubChem BioAssay (NCI).
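48-hour exposure; five concentrations; linearly interpolated endpoints. Definition used: TGI = concentration required for complete inhibition of growth.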

Legend:
Assay in all cases: NCI tumour cell line growth inhibition, 48 h
[1] = test system: SR leukemia
[2] = test system: MDA-MB-435
[3] = test system: T-47D breast
[4] = test system: A498 renal
[5] = test system: NCI-H460 lung
[6] = test system: SK-MEL-5 melanoma
[7] = test system: MALME-3M melanoma
[8] = test system: UACC-62 melanoma
[9] = test system: UACC-257 melanoma
[10] = test system: CAKI-1 renal
[11] = test system: M14 melanoma
[12] = test system: COLO 205 colon
[13] = test system: HCT-116 colon
[14] = test system: HOP-92 NSCLC
[15] = test system: TK-10 renal
[16] = test system: UO-31 renal
[17] = test system: U251 CNS
[18] = test system: SNB-75 CNS

Row | Structure (SMILES) | TGI [1] | TGI [2] | TGI [3] | TGI [4] | TGI [5] | TGI [6] | TGI [7] | TGI [8] | TGI [9] | TGI [10] | TGI [11] | TGI [12] | TGI [13] | TGI [14] | TGI [15] | TGI [16] | TGI [17] | TGI [18]
1 | COc1cc(O)c2c(c1)OCC(Cc1ccc(O)cc1)C2=O (configuration not stated) | > 100 µM | > 100 µM | > 100 µM | > 100 µM | > 100 µM | > 100 µM | > 100 µM | > 100 µM | > 100 µM | > 100 µM | > 100 µM | > 100 µM | > 100 µM | > 100 µM | > 100 µM | > 100 µM | > 100 µM | > 100 µM
2 | COc1ccccc1N1CCN(CCCN2/C(=C(\O)c3ccccc3)C(=O)c3c(C)cc(C)nc3S2(=O)=O)CC1 | > 100 µM | > 100 µM | > 100 µM | > 100 µM | > 100 µM | > 100 µM | > 100 µM | > 100 µM | > 100 µM | > 100 µM | > 100 µM | > 100 µM | > 100 µM | 98 µM | > 100 µM | > 100 µM | > 100 µM | 30.8 µM
3 | Cc1cccc2c(N)c3cccc(C(=O)NCC[N+](C)(C)Cc4c([N+](=O)[O-])ncn4C)c3nc12 | > 100 µM | > 100 µM | > 100 µM | > 100 µM | – | > 88.8 µM | > 100 µM | > 100 µM | > 100 µM | 23.9 µM | > 100 µM | > 100 µM | > 90.2 µM | > 100 µM | > 100 µM | 69.1 µM | > 100 µM | > 100 µM
4 | O=c1[nH]nc(Cc2ccccc2)[nH]1 | > 100 µM | > 100 µM | > 100 µM | > 100 µM | > 100 µM | > 100 µM | > 100 µM | > 100 µM | > 100 µM | > 100 µM | > 100 µM | > 100 µM | > 100 µM | > 100 µM | > 100 µM | > 100 µM | > 100 µM | > 100 µM
5 | CN1C2CCC1CC(CCNC(c1ccccc1)c1ccccc1)C2 (configuration not stated) | 40.3 µM | 21.4 µM | 72.2 µM | 60.5 µM | > 100 µM | 25.5 µM | 31.4 µM | – | 31.8 µM | > 100 µM | 24.9 µM | 23.6 µM | > 100 µM | 43.2 µM | 55 µM | 56.5 µM | > 100 µM | > 100 µM
6 | CC1ON2CCCC2[C@H]1C(=O)N1C2CC3CCC2(CS1(=O)=O)C3(C)C (some centres not stated) | > 100 µM | > 100 µM | > 100 µM | > 100 µM | > 100 µM | > 100 µM | > 100 µM | > 100 µM | > 100 µM | > 100 µM | > 100 µM | > 100 µM | > 100 µM | > 100 µM | > 100 µM | > 100 µM | > 100 µM | > 100 µM
7 | NC(N)=N/N=C/c1c(-c2cccc([N+](=O)[O-])c2)nc2n1CCS2 | 34.9 µM | 55.3 µM | 26.1 µM | 32.9 µM | 53.5 µM | 32.5 µM | 38.1 µM | 39 µM | 36.1 µM | 68.4 µM | 60 µM | 60.6 µM | > 100 µM | 39.7 µM | 47.4 µM | 30.6 µM | 41.7 µM | 25.1 µM
8 | Cc1cc(C)n(C2OC(CO)C(O)C(O)C2O)c(=S)c1C#N (configuration not stated) | > 100 µM | > 100 µM | > 100 µM | > 100 µM | > 100 µM | > 100 µM | > 100 µM | > 100 µM | > 100 µM | > 100 µM | > 100 µM | > 100 µM | > 100 µM | > 100 µM | > 100 µM | > 100 µM | > 100 µM | > 100 µM
9 | Cc1ccc(/C=C2\CCC/C(=C\c3ccc(O)c(CN4CCCCC4)c3)C2=O)cc1 | 8.62 µM | 25.5 µM | 60.2 µM | 13.9 µM | 20 µM | 19.1 µM | 43.7 µM | 9.92 µM | 25.3 µM | 33 µM | > 37.7 µM | 44.6 µM | 7.65 µM | 25.2 µM | 37.9 µM | 23.3 µM | 37.6 µM | 22.6 µM
10 | Cc1ccc(NC(=O)c2cccc(OP(=O)(O)Nc3ccc(C)cc3)c2)cc1 | > 100 µM | > 100 µM | > 100 µM | > 100 µM | > 100 µM | > 100 µM | > 100 µM | > 100 µM | > 100 µM | > 100 µM | > 100 µM | > 100 µM | > 100 µM | > 100 µM | > 100 µM | > 100 µM | > 100 µM | > 100 µM
11 | COC(=O)C(NC(=O)c1ccccc1)c1ccco1 (configuration not stated) | > 100 µM | > 100 µM | > 100 µM | > 100 µM | > 100 µM | > 100 µM | > 100 µM | > 100 µM | > 100 µM | – | > 100 µM | – | > 100 µM | > 100 µM | > 100 µM | > 100 µM | > 100 µM | > 100 µM
12 | CC(=O)OCCOCn1cnc2c(Cl)nc(Cl)nc21 | 16.1 µM | 33.5 µM | 25.6 µM | 91.2 µM | 35 µM | 33 µM | 33.3 µM | 30.1 µM | 36.8 µM | 0.832 µM | 37.1 µM | 38.1 µM | 32 µM | 3.37 µM | > 100 µM | 36.4 µM | 29.2 µM | 51.7 µM
